US20240131204A1, “Fractionated Dosing of a Phospholipid Ether Analog for the Treatment of Cancer” (Cellectar Biosciences, Inc., priority 2019, published 2024)

Key:
[1] = tested on: OPM-2 cell line (human multiple myeloma); test: OPM-2 multiple myeloma subcutaneous xenograft in CB17 SCID mice (tumor volume, doubling time, survival, body weight); assay type: in vivo; conditions: for tolerability: repeated/fractionated dosing versus the single equal dose
Procedure: The OPM-2 cell line (human multiple myeloma) was purchased from American Type Culture Collection (ATCC, Rockville, MD) and maintained in McCoy's 5a media supplemented with 10% fetal bovine serum. Female CB17 SCID mice approximately 5-7 weeks of age were injected subcutaneously with 1×10^7 viable cells (in ˜100 μL Dulbecco's PBS) into the right flank. The study was initiated when tumor size had reached a pre-determined size (approximately 150-200 mm3). The mice were given potassium iodide at a concentration of 0.1% in their drinking water to block possible free iodide in the drug formulation three days prior to injection and continuing through two weeks post-injection. Mice were randomly assigned to dose groups. Tumor volume was measured with a caliper during the course of the study. Tumor doubling time calculation TDT=D×log(2)/log(1+r/100), where D equals days between measurements and r=rate of growth; r/100=(V2−V1/V1)×100%. Statistical analysis: 1-way Anova, Dunnett's test.

[2] = tested on: xenograft, orthotopic and transgenic cancer and cancer stem cell derived animal models; test: Tumor selectivity, uptake and retention in animal tumor models; assay type: in vivo; conditions: variety of tumor models
[3] = tested on: xenograft, orthotopic and transgenic cancer and cancer stem cell derived animal models; conditions: radioiodinated CLR1404; cited from earlier work
[4] = Clinical trial: single bolus dose (Cohort 4) versus fractionated dose (Cohort 5); assay type: in vivo, human
Procedure: Dosing is based upon body surface area or BSA in millicuries/meter squared (mCi/m^2). Patients either received a single 30 minute infusion of 31.25 mCi/m^2 on day 1 or a 30 minute fractionated infusion dose of 15.625 mCi/m^2 on day 1 and then repeated on day 8.

C[N+](C)(C)CCOP(=O)([O-])OCCCCCCCCCCCCCCCCCCc1ccc(I)cc1 [CLR1404]
tolerability [1]: well tolerated and is better tolerated than a single equal dose | sequestration and retention by cancer cells and cancer stem cells [2]: sequestered and selectively retained | tumor selectivity (models showing it / models tested) [3]: 55/60

^131I-labeled 18-(p-iodo-phenyl)octadecyl phosphocholine [CLR 131]
antitumor activity ([1]; all doses, model of multiple myeloma): marked antitumor activity | survival ([1]; fractionated dosing): statistically significant survival benefit | tumor doubling time ([1]; fractionated dosing versus all other treatments): markedly increased | reduction in tumor volume vs control ([1]; fractionated dosing, after day 26): statistically significant reduction | reduction in tumor volume vs all other treatments ([1]; fractionated dosing, day 52, p<0.05): statistically significant reduction | tolerability [1]: well tolerated and better tolerated than the single equal dose | average reduction in surrogate markers of efficacy ([4]; fractionated dose (Cohort 5)): 40% | average progression free survival ([4]; fractionated dose (Cohort 5), assessment ongoing): 2.9 months | median overall survival ([4]; fractionated dose, 15.625 mCi/m^2 on day 1 and day 8 (Cohort 5), assessment still ongoing): 7.4 months | average progression free survival ([4]; single bolus dose (Cohort 4)): 2.8 months | average reduction in surrogate markers of efficacy ([4]; single bolus dose (Cohort 4)): 29% | median overall survival ([4]; single bolus dose, 31.25 mCi/m^2 on day 1 (Cohort 4)): 6.5 months
